We go through one compound from patent US20100113472A1, “COMPOUNDS FOR THE TREATMENT OF OSTEOPOROSIS AND CANCERS” (ChemoCentryx, Inc., priority 2008, published 2010).

Data set [1] deals with Rabbit Model of Destructive Joint Inflammation. The experiment in a line: Rabbit model of destructive joint inflammation (rabbit LPS study). It is filed as in vivo. The conditions noted are these: oral, 2 h before and 4 h after intra-articular LPS (10 ng); lavage 16 h after LPS. As to the method:
A rabbit LPS study was conducted essentially as described in Podolin, et al. J. Immunol. 169(11):6435-6444 (2002). Female New Zealand rabbits (approximately 2 kilograms) were treated intra-articularly in both knees with LPS (10 ng). The compound of interest, for example 1.016, (formulated in 1% methocel) or vehicle (1% methocel) was dosed orally at a 5 ml/kg dose volume at two times (2 hours before the intra-articular LPS injection and 4 hours after the intra-articular LPS injection). Sixteen hours after the LPS injection, knees were lavaged and cells counts were performed. Beneficial effects of treatment were determined by reduction in the number of inflammatory cells recruited to the inflamed synovial fluid of the knee joints.

Data set [2] can be described thus: pharmacokinetic tests conducted in animals. It is filed as in vivo. The conditions noted are these: compared with related compounds of U.S. Publication No. 2007/0010524A1.
Data set [3] deals with human peripheral blood mononuclear cells (PBMC) differentiating into osteoclasts. Kind of data set: Inhibition of formation of osteoclasts in vitro. It is filed as cell-based. The conditions noted are these: Osteoclast, 504 h, 100 nM, M-CSF and RANKL 50 ng/ml each, day 21, over the untreated control, read-out: inhibition of osteoclast formation (TRAP+ multinuclear cells). As to the method:
PBMC were prepared by layering human whole blood over a Ficoll ague plus (Amersham) gradient and centrifuging 45 minutes at 400 g. The interface of white cells is removed and washed twice with PBS, and placed in culture in RPMI with 10% FBS.
CCR1 is expressed on both osteoclast precursor cells and mature osteoclasts and modulates osteoclast formation and maturation. To evaluate the ability of the 1.016 compound to block osteoclast formation in vitro, human peripheral blood mononuclear cells (PBMC) were cultured in the presence of M-CSF (50 ng/ml) and RANKL (50 ng/ml), which induces the monocyte subpopulation to differentiate into giant multinucleated osteoclasts over 21 days. Compound 1.016 was added at a concentration of 100 nM to the culture media on day one and the compound/medium was changed twice weekly. On day 21, cells were fixed and stained for tartrate-resistant acid phosphatase (TRAP) (acid phosphatase leukocyte staining kit, Sigma, Mo.) and TRAP^+ multinuclear (3 or more nuclei) cells were quantified by light microscopy. Osteoclast formation in the presence of 1.016 was inhibited by ˜40% over the untreated control.

For data set [4], the system named is Rat Model of Collagen Induced Arthritis. The experiment in a line: Rat model of collagen induced arthritis. The conditions noted are these: female Lewis rats; 150 mg/kg oral, twice daily, day 9 to day 17. It is filed as in vivo. The method, then:
A 17 day developing type II collagen arthritis study was conducted to evaluate the effects of a compound of interest on arthritis induced clinical ankle swelling. Rat collagen arthritis is an experimental model of polyarthritis that has been widely used for preclinical testing of numerous anti-arthritic agents (see Trentham, et al., J. Exp. Med. 146(3):857-868 (1977), Bendele, et al., Toxicologic Pathol. 27:134-142 (1999), Bendele, et al., Arthritis Rheum. 42:498-506 (1999)). The hallmarks of this model are reliable onset and progression of robust, easily measurable polyarticular inflammation, marked cartilage destruction in association with pannus formation and mild to moderate bone resorption and periosteal bone proliferation.
To measure the efficacy of CCR1 antagonists on the development of collagen induced arthritis in rats, compound 1.016 was evaluated in groups of 20 female Lewis rats. Animals were injected with 300 μl of Freund's Incomplete Adjuvant (Difco, Detroit, Mich.) containing 2 mg/ml bovine type II collagen (Elastin Products, Owensville, Mo.) at the base of the tail and 2 sites on the hack on days 0 and 6. Dosing by oral route (150 mg/kg; oral, twice daily) was initiated on day 9 of established disease (day 0 of arthritis) and continued through day 17 (day 7 of arthritis). On arthritis day 7, animals were euthanized for tissue collection. Hind paws were transected at the level of the medial and lateral malleolus, weighed and placed in formalin for microscopy. Osteoclasts were counted in 5, 400× magnification fields in ankle and knee of each joint and the mean number for the joint determined. Collagen arthritic ankles are also given scores of 0-5 (0 indicating normal and 5 indicating severe) for bone resorption according to established criteria.

One may read the inhibition as how much of the control response was suppressed. `COc1cc(N2CCN(C(=O)Cn3nc(-c4ncc[nH]4)c4cccnc43)CC2)ccc1Cl` [compound 1.016, 1-[4-(4-Chloro-3-methoxy-phenyl)-piperazin-1-yl]-2-[3-(1H-imidazol-2-yl)-pyrazolo[3,4-b]pyridin-1-yl]-ethanone]: the “recruited inflammatory cells in synovial fluid of the knee joints” value in data set [1] was “significant reduction”. Also, in data set [2], the AUC entry was “increased”, the Cmax entry is “increased” and the oral bioavailability result is reported as “improved”. Further, the inhibition at 0.1 µM in data set [3] was around 40%. Moreover, in data set [4], the “bone resorption (score 0-5)” value is recorded as “reduction in bone resorption”; the “clinical changes associated with established type II collagen arthritis” value was “effectively inhibited”; the “joint swelling assessed by caliper measurements” value is recorded as “reduction in joint swelling”; the “osteoclasts in ankle and knee (histopathology)” value was “reduction of osteoclasts”.
